Structures can show the parent of a compound that is named as a salt. Where two headings read alike, the source gives them in different places.
Experiments:
5-HT3 receptor = target: T1, 5-HT3 receptor (Rattus norvegicus, UniProt P35563); experiment: 5-HT3 receptor antagonist activity: inhibition of 2-Me-5-HT-induced reduction in heart rate in anesthetized rats; assay type: in vivo; conditions: iv (jugular vein) 5 minutes before 2-Me-5-HT 0.1 mg/kg, read-out: IC50 (the source's name)
T1 construct: from tissue; host or cells: whole anesthetized rat (in vivo); endogenous receptor
T1 sequence (P35563 24-483): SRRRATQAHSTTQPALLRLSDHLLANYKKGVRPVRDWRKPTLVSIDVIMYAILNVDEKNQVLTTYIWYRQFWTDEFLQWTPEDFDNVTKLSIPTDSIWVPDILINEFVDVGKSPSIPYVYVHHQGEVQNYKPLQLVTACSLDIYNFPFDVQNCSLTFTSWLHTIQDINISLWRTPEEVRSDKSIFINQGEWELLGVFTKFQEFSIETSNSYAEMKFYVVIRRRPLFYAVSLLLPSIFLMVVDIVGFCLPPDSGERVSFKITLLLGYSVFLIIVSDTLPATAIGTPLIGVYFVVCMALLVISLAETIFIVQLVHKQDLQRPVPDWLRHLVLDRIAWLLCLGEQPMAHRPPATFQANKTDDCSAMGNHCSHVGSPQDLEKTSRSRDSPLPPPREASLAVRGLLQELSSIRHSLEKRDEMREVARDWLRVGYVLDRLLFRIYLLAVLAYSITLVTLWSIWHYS
Procedure: For the purpose of studying a receptor selectivity of the present compounds, the 5-HT3 receptor antagonist activity was tested in the following manner. Rats were anesthetized with urethane and heart rate was recorded through femoral artery. The 5-HT3 selective agonist, 2-methyl-5-hydroxytryptamine (2-Me-5-HT) was administered at 0.1 mg/kg through carotid arteries and transient reduction in heart rate was recorded. The test. compounds were administered through jugular vein at 5 minutes before the administration of 2-Me-5-HT, inhibitory rate of reduction in heart rate by the administration of 2-Me-5-HT was calculated and IC50 value was calculated from the inhibitory rate.

5-HT4 receptor = 5-HT4 receptor (Cavia porcellus, UniProt O70528); experiment: Increase in contraction height of electrically stimulated longitudinal muscle of isolated guinea pig ileum (LMMP); assay type: cell-based; design: key: +: indicates the increase in the contraction height; -: indicates no effect
Description: Ileum was excised from guinea pigs to prepare longitudinal muscle samples with approximately 2 cm length. The sample was suspended in Krebs-Henseleit liquid bath supplied with a mixed gas (95% O2, 5% CO2) and subjected to electrical stimulation (1 msec, 0.1 Hz) to record contraction force isometrically. The test compounds were. dissolved in distilled water or DMSO and tested at a concentration of 10^-7 M (but 10^-6 M for Compound 11). The results are shown by the presence or absence of the increase in the contraction height by electrical stimulation before administration of the compound, wherein the symbol "+" indicates the increase in the contraction height, while "-" indicates no effect.
Whether or not the action of the above compounds is that via activation of 5-HT4 receptors was investigated using as 5-HT4 receptor antagonist, SDZ 205-557 (2-methoxy-4-amino-5-chlorobenzoic acid 2-(diethylamino)ethyl ester) described in Naunyn-Schmiedeberg's Arch Pharmacol (1992) 345:387-393. Thus, the investigation as to whether SDZ 205-557 can antagonize the increase in the contraction height of the above compounds using the longitudinal muscle preparation of the isolated guinea pig ileum can reveal that such increase in the contraction height is the action via activation of 5-HT4 receptors.

5-HT4 receptors = target: T2, 5-HT4 receptors (Rattus norvegicus, UniProt Q62758); experiment: Relaxation of carbachol-contracted rat oesophageal tunica muscularis mucosae; assay type: cell-based
T2 construct: from tissue; host or cells: rat oesophageal tunica muscularis mucosae
Procedure: The agonistic activity of oxazabicyclo derivatives and Mosapride on 5-HT4 receptors was determined by the procedure mentioned in Naunyn-Schmiedeberg's Arch Pharmacol (1991) 343:439-446.
The rat oesophageal tunica muscularis mucosae were suspended in organ both containing Krebs-Henseleit solution aerated with a mixed gas (95% O2, 5% CO2) and contracted with carbachol (1×10^-6 M). After the contraction was stabilized, the cumulative administration of the compounds was performed to determine the relaxation of the rat oesophagus pre-contracted with carbachol. The concentration (ED50) to cause 50% relaxation of the carbachol-induced contraction was measured. The result is expressed in terms of -log ED50 and shown in the following table in which higher numerical value indicates higher activity.

Chain of 5-HT4 receptor (O70528 whole entry): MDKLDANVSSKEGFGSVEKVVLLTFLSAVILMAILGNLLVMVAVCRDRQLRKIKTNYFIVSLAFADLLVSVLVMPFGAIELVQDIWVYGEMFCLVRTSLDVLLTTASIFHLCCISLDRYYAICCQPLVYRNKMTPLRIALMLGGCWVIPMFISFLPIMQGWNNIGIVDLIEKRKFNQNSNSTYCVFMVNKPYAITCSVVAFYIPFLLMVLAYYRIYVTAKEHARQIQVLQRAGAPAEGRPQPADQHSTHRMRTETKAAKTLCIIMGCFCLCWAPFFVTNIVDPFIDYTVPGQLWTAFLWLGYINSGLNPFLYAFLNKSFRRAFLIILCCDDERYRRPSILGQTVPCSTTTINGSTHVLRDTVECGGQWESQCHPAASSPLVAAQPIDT
T2 sequence (Q62758 whole entry): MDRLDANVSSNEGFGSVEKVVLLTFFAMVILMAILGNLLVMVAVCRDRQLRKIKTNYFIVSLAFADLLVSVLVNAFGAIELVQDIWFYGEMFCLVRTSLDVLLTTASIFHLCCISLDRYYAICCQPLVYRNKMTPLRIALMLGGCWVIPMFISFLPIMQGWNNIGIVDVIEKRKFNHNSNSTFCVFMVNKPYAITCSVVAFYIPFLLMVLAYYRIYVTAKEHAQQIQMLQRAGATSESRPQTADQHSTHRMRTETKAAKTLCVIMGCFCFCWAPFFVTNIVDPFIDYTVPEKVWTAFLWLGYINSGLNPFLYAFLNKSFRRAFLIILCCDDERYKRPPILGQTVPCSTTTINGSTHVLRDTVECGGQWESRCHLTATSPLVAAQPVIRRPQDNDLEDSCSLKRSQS

SMILES | EC50 (5-HT4 receptors) | also measured
CCCCN1[C@@H]2COC[C@H]1C[C@@H](NC(=O)c1nn(C(C)CC)c3ccccc13)C2 (relative stereo) [Example 8] | 631 nM | ED50 (5-HT3 receptor): 0.0297 mg/kg; LMMP: presence or absence of the increase in the contraction height by electrical stimulation (5-HT4 receptor; test concentration 10^-7 M): +
CCCCN1[C@@H]2COC[C@H]1C[C@@H](NC(=O)c1nn(C(C)CCC)c3ccccc13)C2 (relative stereo) [Example 9, N-[endo-9-(n-Butyl)-3-oxa-9-azabicyclo[3.3.1]non-7-yl]-1-(2-pentyl)-indazole-3-carboxamide] | 776 nM | 
CC#CC(C)n1nc(C(=O)N[C@H]2C[C@H]3COC[C@@H](C2)N3CCCC)c2ccccc21 (relative stereo) [Example 17, N-[endo-9-(n-Butyl)-3-oxa-9-azabicyclo[3.3.1]non-7-yl]-1-(1-methyl-2-butynyl)indazole-3-carboxamide] | 2240 nM | 
CN1[C@@H]2COC[C@H]1C[C@@H](NC(=O)c1nn(C)c3ccccc13)C2 [Comparative Example 1, N-[endo-9-Methyl-3-oxa-9-azabicyclo[3.3.1]non-7-yl]-1-methylindazole-3-carboxamide, reference compound] |  | LMMP: presence or absence of the increase in the contraction height by electrical stimulation (5-HT4 receptor; test concentration 10^-7 M): -; EC50 (5-HT4 receptors; ED50 = concentration to cause 50% relaxation of contraction by carbachol (1×10^-6 M), cumulative administration, read-out: Activity (-log ED50) (converted)): 115000 nM
CC(C)n1nc(C(=O)N[C@H]2C[C@H]3COC[C@@H](C2)N3C)c2ccccc21 [Comparative Example 2, N-[endo-9-Methyl-3-oxa-9-azabicyclo[3.3.1]non-7-yl]-1-isopropylindazole-3-carboxamide, reference compound] | 1510 nM | ED50 (5-HT3 receptor): 0.00032 mg/kg; LMMP: presence or absence of the increase in the contraction height by electrical stimulation (5-HT4 receptor; test concentration 10^-7 M): +
CCCCN1[C@@H]2COC[C@H]1C[C@@H](NC(=O)c1nn(CCC)c3ccccc13)C2 [Example 1, N-[endo-9-(n-Butyl)-3-oxa-9-azabicyclo[3.3.1]non-7-yl]-1-(n-propyl)indazole-3-carboxamide] | 3800 nM | 
CCCN1[C@@H]2COC[C@H]1C[C@@H](NC(=O)c1nn(C(C)C)c3ccccc13)C2 [Example 2, N-[endo-9-(n-Propyl)-3-oxa-9-azabicyclo[3.3.1]non-7-yl]-1-isopropyl-indazole-3-carboxamide] | 2880 nM | ED50 (5-HT3 receptor): 0.0089 mg/kg; LMMP: presence or absence of the increase in the contraction height by electrical stimulation (5-HT4 receptor; test concentration 10^-7 M): +
CCCN1[C@@H]2COC[C@H]1C[C@@H](NC(=O)c1nn(C(CC)CC)c3ccccc13)C2 [Example 3, N-[endo-9-(n-Propyl)-3-oxa-9-azabicyclo[3.3.1]non-7-yl]-1-(3-pentyl)-indazole-3-carboxamide] | 1660 nM | 
CCCCN1[C@@H]2COC[C@H]1C[C@@H](NC(=O)c1nn(CC)c3ccccc13)C2 [Example 4, N-[endo-9-(n-Butyl)-3-oxa-9-azabicyclo[3.3.1]non-7-yl]-1-ethylindazole-3-carboxamide] | 10200 nM | 
CCCCN1[C@@H]2COC[C@H]1C[C@@H](NC(=O)c1nn(CCCC)c3ccccc13)C2 [Example 6, N-[endo-9-(n-Butyl)-3-oxa-9-azabicyclo[3.3.1]non-7-yl]-1-(n-butyl)-indazole-3-carboxamide] | 4680 nM | 
CCCCN1[C@@H]2COC[C@H]1C[C@@H](NC(=O)c1nn(CC(C)C)c3ccccc13)C2 [Example 7, N-[endo-9-(n-Butyl)-3-oxa-9-azabicyclo[3.3.1]non-7-yl]-1-isobutyl-indazole-3-carboxamide] | 5250 nM | 
CCCCN1[C@@H]2COC[C@H]1C[C@@H](NC(=O)c1nn(C(CC)CC)c3ccccc13)C2 [Example 10, N-[endo-9-(n-Butyl)-3-oxa-9-azabicyclo[3.3.1.]non-7-yl]-1-(3-pentyl)indazole-3-carboxamide] | 851 nM | 
C=CCn1nc(C(=O)N[C@H]2C[C@H]3COC[C@@H](C2)N3CCCC)c2ccccc21 [Example 11, N-[endo-9-(n-Butyl)-3-oxa-9-azabicyclo[3.3.1]non-7-yl]-1-allyl-indazole-3-carboxamide] | 3550 nM | LMMP: presence or absence of the increase in the contraction height by electrical stimulation (5-HT4 receptor; test concentration 10^-6 M (Compound 11)): +
CCCCN1[C@@H]2COC[C@H]1C[C@@H](NC(=O)c1nn(CC=C(C)C)c3ccccc13)C2 [Example 12, N-[endo-9-(n-Butyl)-3-oxa-9-azabicyclo[3.3.1]non-7-yl]-1-(3-methyl-2-butenyl)indazole-3-carboxamide] | 6760 nM | 
CCCCN1[C@@H]2COC[C@H]1C[C@@H](NC(=O)c1nn(CC3CC3)c3ccccc13)C2 [Example 13, N-[endo-9-(n-Butyl)-3-oxa-9-azabicyclo[3.3.1]non-7-yl]-1-(cyclopropylmethyl)indazole-3-carboxamide] | 2090 nM | LMMP: presence or absence of the increase in the contraction height by electrical stimulation (5-HT4 receptor; test concentration 10^-7 M): +
CCCCCN1[C@@H]2COC[C@H]1C[C@@H](NC(=O)c1nn(C(C)C)c3ccccc13)C2 [Example 14, N-[endo-9-(n-Pentyl)-3-oxa-9-azabicyclo[^3.3.1]non-7-yl]-1-isopropylindazole-3-carboxamide] | 1480 nM | ED50 (5-HT3 receptor): 0.0281 mg/kg; LMMP: presence or absence of the increase in the contraction height by electrical stimulation (5-HT4 receptor; test concentration 10^-7 M): +
CCCCCN1[C@@H]2COC[C@H]1C[C@@H](NC(=O)c1nn(C(CC)CC)c3ccccc13)C2 [Example 15, N-[endo-9-(n-Pentyl)-3-oxa-9-azabicyclo[3.3.1]non-7-yl]-1-(3-pentyl)-indazole-3-carboxamide] | 813 nM | 
CCCCN1[C@@H]2COC[C@H]1C[C@@H](NC(=O)c1nn(C3CCCC3)c3ccccc13)C2 [Example 16, N-[endo-9-(n-Butyl)-3-oxa-9-azabicyclo[3.3.1]non-7-yl]-1-cyclopentyl-indazole-3-carboxamide] | 7760 nM | 
CCCCN1[C@@H]2COC[C@H]1C[C@@H](NC(=O)c1nn([C@@H](C)CC)c3ccccc13)C2 [Example 18, (S)-(+)-N-[endo-9-(n-Butyl)-3-oxa-9-azabicyclo[3.3.1]non-7-yl]-1-(sec-butyl)indazole-3-carboxamide] | 437 nM | ED50 (5-HT3 receptor): 0.0183 mg/kg
CCCCN1[C@@H]2COC[C@H]1C[C@@H](NC(=O)c1nn([C@H](C)CC)c3ccccc13)C2 [Example 19, (R)-(-)-N-[endo-9-(n-Butyl)-3-oxa-9-azabicyclo[3.3.1]non-7-yl]-1-(sec-butyl)indazole-3-carboxamide] | 1050 nM | 
CCCCN1[C@@H]2COC[C@H]1C[C@@H](NC(=O)c1nn(C(C)C)c3ccc(O)cc13)C2 [Example 26, N-[endo-9-(n-Butyl)-3-oxa-9-azabicyclo[3.3.1]non-7-yl]-5-hydroxy-1-isopropylindazole-3-carboxamide (hydrochloride)] | 10500 nM | 
CCCCN1[C@@H]2COC[C@H]1C[C@@H](NC(=O)c1nn(C(C)C)c3c(O)cccc13)C2 [Example 27, N-[endo-9-(n-Butyl)-3-oxa-9-azabicyclo[3.3.1]non-7-yl]-7-hydroxy-1-isopropylindazole-3-carboxamide (hydrochloride)] | 15800 nM | 
CC(C)n1nc(C(=O)N[C@H]2C[C@H]3COC[C@@H](C2)N3)c2ccccc21 [Example 28, N-[endo-3-Oxa-9-azabicyclo[3.3.1]non-7-yl]-1-isopropylindazole-3-carboxamide (hydrochloride)] | 468 nM | 

Reference: patent US5684003A, “5-HT4 receptor agonists” (Nisshin Flour Milling Co., Ltd., priority 1994, dated 1997)
